Measurements taken from ChEMBL document CHEMBL1909046, “DrugMatrix in vitro pharmacology data”.

Assays:
[1] = target: T1, Cholecystokinin receptor type A (Homo sapiens, UniProt P32238); type: cell membranes, Membrane; details: 1321-n1
T1 sequence (P32238 whole entry): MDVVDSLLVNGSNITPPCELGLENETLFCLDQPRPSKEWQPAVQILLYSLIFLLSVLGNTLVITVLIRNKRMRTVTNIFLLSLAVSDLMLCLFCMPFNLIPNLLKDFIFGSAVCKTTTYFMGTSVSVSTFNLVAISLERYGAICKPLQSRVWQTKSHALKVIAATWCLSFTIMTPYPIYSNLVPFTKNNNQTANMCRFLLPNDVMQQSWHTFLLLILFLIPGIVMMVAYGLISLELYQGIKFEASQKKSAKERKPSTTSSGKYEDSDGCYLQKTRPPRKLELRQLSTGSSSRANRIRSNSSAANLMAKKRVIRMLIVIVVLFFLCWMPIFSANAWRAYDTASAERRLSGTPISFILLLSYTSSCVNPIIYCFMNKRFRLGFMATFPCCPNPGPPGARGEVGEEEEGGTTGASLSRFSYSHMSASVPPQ

Cytochrome P450 1A2 = target: T2, Cytochrome P450 1A2 (Homo sapiens, UniProt P05177); details: bti-tn-5b1-4
T2 sequence (P05177 whole entry): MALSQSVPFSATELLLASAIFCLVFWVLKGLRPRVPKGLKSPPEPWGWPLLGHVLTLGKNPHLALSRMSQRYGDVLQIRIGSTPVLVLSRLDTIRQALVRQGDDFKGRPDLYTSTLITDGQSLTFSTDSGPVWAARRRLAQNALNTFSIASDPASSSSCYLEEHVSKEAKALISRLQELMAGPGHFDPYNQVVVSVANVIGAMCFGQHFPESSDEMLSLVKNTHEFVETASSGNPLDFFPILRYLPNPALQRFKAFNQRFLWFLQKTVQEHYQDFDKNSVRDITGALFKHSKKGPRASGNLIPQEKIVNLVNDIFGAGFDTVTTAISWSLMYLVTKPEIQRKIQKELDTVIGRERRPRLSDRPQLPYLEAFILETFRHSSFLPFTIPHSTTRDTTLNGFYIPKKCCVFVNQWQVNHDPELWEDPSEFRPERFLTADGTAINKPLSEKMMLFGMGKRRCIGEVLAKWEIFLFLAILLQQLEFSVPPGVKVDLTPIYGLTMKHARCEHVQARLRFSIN

[2] = target: Tyrosine-protein kinase Fyn (Homo sapiens, UniProt P06241); experiment: biochemical; type: cell-based, Insect cells; details: insect cells;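 note: enzymatic inhibition of Fyn kinase activity measured with Poly(Glu:Tyr) as the phosphorylation substrate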
[3] = target: T3, Polyunsaturated fatty acid lipoxygenase ALOX15 (Oryctolagus cuniculus, UniProt P12530); experiment: biochemical; type: tissue-based, Reticulocytes; details: reticulocytes;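 note: inhibition of 15-lipoxygenase enzyme activity measured with linoleic acid as the substrate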
T3 sequence (P12530 whole entry): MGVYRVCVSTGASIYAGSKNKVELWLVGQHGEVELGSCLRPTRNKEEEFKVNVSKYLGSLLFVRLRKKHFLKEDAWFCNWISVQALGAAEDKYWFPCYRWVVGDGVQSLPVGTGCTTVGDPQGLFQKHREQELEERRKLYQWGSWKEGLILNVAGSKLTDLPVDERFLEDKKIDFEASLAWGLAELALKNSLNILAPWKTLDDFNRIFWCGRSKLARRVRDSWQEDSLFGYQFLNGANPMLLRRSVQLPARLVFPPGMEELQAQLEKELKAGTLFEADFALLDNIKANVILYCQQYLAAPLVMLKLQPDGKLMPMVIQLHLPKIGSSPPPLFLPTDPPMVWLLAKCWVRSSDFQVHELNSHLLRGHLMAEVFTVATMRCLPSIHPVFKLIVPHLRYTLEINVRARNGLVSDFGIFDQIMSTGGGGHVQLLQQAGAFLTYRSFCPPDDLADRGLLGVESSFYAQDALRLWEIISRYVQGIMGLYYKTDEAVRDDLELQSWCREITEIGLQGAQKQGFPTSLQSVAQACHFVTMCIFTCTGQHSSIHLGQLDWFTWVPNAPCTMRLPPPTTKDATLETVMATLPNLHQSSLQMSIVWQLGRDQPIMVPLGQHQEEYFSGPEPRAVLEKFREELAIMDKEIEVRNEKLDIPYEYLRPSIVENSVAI

[4] = target: C-C chemokine receptor type 2 (Homo sapiens, UniProt P41597); type: cell membranes, CHO-K1, Membrane; details: cho-k1
[5] = target: T4, Neuropeptide Y receptor type 1 (Homo sapiens, UniProt P25929); type: cell membranes, Membrane; details: sk-n-mc
T4 sequence (P25929 whole entry): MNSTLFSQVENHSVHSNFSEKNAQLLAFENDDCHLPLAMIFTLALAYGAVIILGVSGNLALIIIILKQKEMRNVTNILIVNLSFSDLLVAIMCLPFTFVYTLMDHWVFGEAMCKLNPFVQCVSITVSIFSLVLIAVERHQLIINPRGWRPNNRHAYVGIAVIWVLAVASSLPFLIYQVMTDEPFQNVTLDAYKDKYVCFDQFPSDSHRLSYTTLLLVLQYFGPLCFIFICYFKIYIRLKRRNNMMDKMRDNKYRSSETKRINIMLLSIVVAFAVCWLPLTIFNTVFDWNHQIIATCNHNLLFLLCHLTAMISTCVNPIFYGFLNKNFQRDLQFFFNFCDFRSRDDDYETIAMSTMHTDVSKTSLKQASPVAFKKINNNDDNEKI

[6] = target: Delta-type opioid receptor (Homo sapiens, UniProt P41143); type: cell membranes, HEK293, Membrane; details: hek293
Estrogen receptor beta = Estrogen receptor beta (Homo sapiens, UniProt Q92731); details: sf9
Note: in other assays of this panel Not Active means under 50% inhibition at 10 µM.

Sequence of Tyrosine-protein kinase Fyn (P06241 whole entry): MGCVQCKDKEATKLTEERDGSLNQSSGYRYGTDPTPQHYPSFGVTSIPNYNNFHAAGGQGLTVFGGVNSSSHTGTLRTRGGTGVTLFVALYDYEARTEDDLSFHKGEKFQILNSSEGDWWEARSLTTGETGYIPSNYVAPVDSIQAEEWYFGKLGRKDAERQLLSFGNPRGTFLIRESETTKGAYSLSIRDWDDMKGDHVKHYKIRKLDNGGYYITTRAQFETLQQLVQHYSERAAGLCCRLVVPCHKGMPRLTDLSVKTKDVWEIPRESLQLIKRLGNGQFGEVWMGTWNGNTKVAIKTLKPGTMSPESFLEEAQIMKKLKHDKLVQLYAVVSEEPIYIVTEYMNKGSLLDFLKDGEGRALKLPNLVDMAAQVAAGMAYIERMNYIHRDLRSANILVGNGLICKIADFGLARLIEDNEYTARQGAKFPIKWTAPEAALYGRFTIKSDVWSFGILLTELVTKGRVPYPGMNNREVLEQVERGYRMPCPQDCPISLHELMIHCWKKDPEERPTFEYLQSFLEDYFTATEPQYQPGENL
Sequence of Estrogen receptor beta (Q92731 whole entry): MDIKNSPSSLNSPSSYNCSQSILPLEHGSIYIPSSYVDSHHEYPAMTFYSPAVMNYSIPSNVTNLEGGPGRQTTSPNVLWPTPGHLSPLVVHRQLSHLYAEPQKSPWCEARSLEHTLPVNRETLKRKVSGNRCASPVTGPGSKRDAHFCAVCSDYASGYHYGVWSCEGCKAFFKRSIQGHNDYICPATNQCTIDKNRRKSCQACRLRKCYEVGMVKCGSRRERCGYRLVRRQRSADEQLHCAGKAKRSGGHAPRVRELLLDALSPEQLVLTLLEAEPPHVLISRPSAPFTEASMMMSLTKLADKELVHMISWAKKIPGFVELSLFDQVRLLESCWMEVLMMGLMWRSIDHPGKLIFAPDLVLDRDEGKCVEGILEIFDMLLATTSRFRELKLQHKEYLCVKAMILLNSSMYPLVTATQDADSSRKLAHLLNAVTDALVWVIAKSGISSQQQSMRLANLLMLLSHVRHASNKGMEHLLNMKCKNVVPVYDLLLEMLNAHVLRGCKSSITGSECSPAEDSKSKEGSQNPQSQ
Sequence of Delta-type opioid receptor (P41143 whole entry): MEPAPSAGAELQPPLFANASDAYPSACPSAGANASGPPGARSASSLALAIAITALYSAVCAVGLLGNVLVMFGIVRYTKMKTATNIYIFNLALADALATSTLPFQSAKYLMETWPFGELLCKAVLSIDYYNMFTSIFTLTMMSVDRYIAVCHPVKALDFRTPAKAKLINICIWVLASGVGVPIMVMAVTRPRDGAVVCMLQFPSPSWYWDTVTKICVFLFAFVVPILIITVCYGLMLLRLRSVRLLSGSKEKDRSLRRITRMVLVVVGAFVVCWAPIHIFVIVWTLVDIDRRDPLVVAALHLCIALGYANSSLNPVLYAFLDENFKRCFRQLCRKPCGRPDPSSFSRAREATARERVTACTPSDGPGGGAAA
Sequence of C-C chemokine receptor type 2 (P41597 whole entry): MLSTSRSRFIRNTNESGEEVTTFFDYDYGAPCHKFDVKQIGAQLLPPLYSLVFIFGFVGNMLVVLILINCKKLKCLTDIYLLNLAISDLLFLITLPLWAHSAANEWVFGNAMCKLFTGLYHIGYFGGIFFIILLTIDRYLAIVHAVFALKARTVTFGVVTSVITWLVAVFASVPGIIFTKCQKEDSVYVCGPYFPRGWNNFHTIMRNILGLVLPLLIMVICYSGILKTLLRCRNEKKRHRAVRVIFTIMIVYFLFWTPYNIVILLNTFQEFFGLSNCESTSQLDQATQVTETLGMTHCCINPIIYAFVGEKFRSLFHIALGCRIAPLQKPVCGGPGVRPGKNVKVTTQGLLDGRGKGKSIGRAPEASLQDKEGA

CC(C)[C@H]1C(=O)N2CCC[C@H]2[C@]2(O)O[C@](NC(=O)[C@@H]3C=C4c5cccc6[nH]cc(c56)C[C@H]4N(C)C3)(C(C)C)C(=O)N12 [ERGOCORNINE]
Not Active: IC50 [1] | IC50 (Cytochrome P450 1A2) | Ki (Cytochrome P450 1A2) | IC50 [2] | IC50 [3] | IC50 [4] | IC50 [5] | IC50 [6] | IC50 (Estrogen receptor beta)

CCCC1O[C@@H]2C[C@H]3[C@@H]4CCC5=CC(=O)C=C[C@]5(C)[C@H]4[C@@H](O)C[C@]3(C)[C@]2(C(=O)CO)O1 (stereo not given in full) [BUDESONIDE]
Not Active: IC50 [1] | IC50 (Cytochrome P450 1A2) | Ki (Cytochrome P450 1A2) | IC50 [2] | IC50 [3] | IC50 [4] | IC50 [5] | IC50 [6] | IC50 (Estrogen receptor beta)

O=C(CCCN1CC=C(n2c(=O)[nH]c3ccccc32)CC1)c1ccc(F)cc1 [DROPERIDOL]
Not Active: IC50 [1] | IC50 (Cytochrome P450 1A2) | Ki (Cytochrome P450 1A2) | IC50 [2] | IC50 [3] | IC50 [4] | IC50 [5] | IC50 [6] | IC50 (Estrogen receptor beta)

Cc1onc(O)c1CC(N)C(=O)O (racemic) [(R,S)-AMPA]
Not Active: IC50 [1] | IC50 (Cytochrome P450 1A2) | Ki (Cytochrome P450 1A2) | IC50 [2] | IC50 [3] | IC50 [4] | IC50 [5] | IC50 [6] | IC50 (Estrogen receptor beta)

CCOC(=O)C1=C(COCCN)NC(C)=C(C(=O)OC)C1c1ccccc1Cl (stereo not given) [AMLODIPINE]
Not Active: IC50 [1] | IC50 (Cytochrome P450 1A2) | Ki (Cytochrome P450 1A2) | IC50 [2] | IC50 [3] | IC50 [4] | IC50 [5] | IC50 [6] | IC50 (Estrogen receptor beta)
